Assay results as given in patent US20030133987A1, “Drug nanoparticles from template emulsions” (priority 2002, published 2003).

Assay: In-vitro dissolution, standard protocol according to USP 24 monographs
Assay type: physicochemical
Settings: HPLC or UV/VIS detection, control (drug as received) in parenthesis
Description: The dissolution progress was measured after 5, 10, 15, and 60 minutes using either High Pressure Liquid Chromatography (HPLC) or UV/VIS detection as the analytical tools. […] For comparison, the corresponding data for the controls are given in parenthesis.

- percent of dissolved sample, 5 min (5 min): 31%
- percent of dissolved sample, 10 min (10 min): 41%
- percent of dissolved sample, 15 min (15 min): 48%
- percent of dissolved sample, 60 min (60 min): (100%)
Compound: CC(=O)N1CCN(c2ccc(OCC3COC(Cn4ccnc4)(c4ccc(Cl)cc4Cl)O3)cc2)CC1 (stereo not shown) [Ketoconazole, ketoconazole]
